From US9102636B2, “Analgesic compounds, compositions, and uses thereof” (Galleon Pharmaceuticals, Inc., priority 2010, dated 2015)
Values joined by “and” are separate entries in the source; they are usually repeats but may differ in a detail not shown here. Equal values may be shown once. Where a name gives a salt, the structure may show the parent alone. Each block holds one molecule with its values, some of them ahead of it.

Tests used:
[1] = system: Carrageenan-induced thermal hyperalgesia; assay: Carrageenan-induced thermal hyperalgesia (Hargreaves); format: in vivo, rat; details: indomethacin 30 mg/kg p.o. prior to carrageenan; for Paw withdrawal latency: cut-off 40 s, individual animals
Method: (§1) The effect of Compound 2 in the rat carrageenan model of acute inflammatory pain was evaluated. The intraplantar carrageenan model of acute inflammatory pain in the rat results in behaviors similar to that observed in patients and has been widely used to assess novel pharmacological treatments (Whiteside et al., 2005, J. Pharmacol. Exp. Ther. 314:1234-1240). The objective of this study was to evaluate the ability of Compound 2 to reverse or prevent development of thermal hyperalgesia and edema in the rat carrageenan model of acute inflammatory pain. The positive control was indomethacin (Sigma, St. Louis), and the negative control was vehicle (0.5% methyl cellulose). […] The Hargreaves apparatus was obtained from Ugo Basile, Italy, and the lamba-carrageenan was obtained from Sigma, St. Louis. For this assay, paw withdrawal latency to a thermal stimulus was assessed using a radiant heat source (Ugo Basile, Italy) aimed at the plantar surface of the left hind paw (Hargreaves test). […] Paw volume was measured by displacement of water and assuming a tissue density equal to that of water. Baseline latencies were taken prior to carrageenan administration and re-assessed 4 h later. Compound 2 or vehicle was administered (10 and 30 mg/kg, p.o.) 3 hrs after carrageenan (curative) and behavior assessed 1 hr later. […] Indomethacin (positive control, 30 mg/kg p.o.) was administered prior to carrageenan and behavior assessed 4 hrs post-carrageenan. […] After induction of anesthesia, the injection site was prepared in a sterile manner and 50 μl of a 2% Jamba-carrageenan was injected. After injection, animals were weighed and allowed to recover before being returned to their home cages. Statistical significance was determined on untransformed data using a two-way analysis of variance (Graphpad Prism, NC). Significant main effects were analyzed further by subsequent Bonferronni post-hoc test. The level of significance was set at p<0.05. Data are shown as mean±S.E.M. (with an asterisk to denote significance as compared to vehicle treated controls).

[2] = system: Carrageenan-induced edema; assay: Carrageenan-induced edema (paw volume); format: in vivo, rat; details: indomethacin 30 mg/kg p.o. prior to carrageenan; for Paw volume: individual animals
Method: as §1, with “later.” for “later. Compound 2 or vehicle was administered (10 and 30 mg/kg, p.o.) 3 hrs after carrageenan (curative) and behavior assessed 1 hr later.”

SMILES: COc1ccc2c(c1)c(CC(=O)O)c(C)n2C(=O)c1ccc(Cl)cc1 [Indo]
Paw withdrawal latency ([1]; 4 hrs post-carrageenan (second line)): 17 s and 35 s and 26 s and 28 s and 40 s (2×) | Paw withdrawal latency ([1]; baseline prior to carrageenan (first line)): 20 s and 40 s and 17 s and 32 s and 23 s and 24 s | Paw volume ([2]; 4 hr post-drug): 2.5 mL and 2.4 mL and 2.3 mL (2×) and 2.2 mL and 1.8 mL | Paw volume ([2]; Pre-Cg): 1.7 mL (2×) and 1.5 mL (2×) and 1.8 mL and 1.4 mL

SMILES: COc1ccc2c(c1)c(CC(=O)O)c(C)n2C(=O)c1ccc(Cl)cc1 [indomethacin, reference compound]
carrageenan-induced thermal hyperalgesia, positive control preemptive ([1]; rat, 4 hrs post-carrageenan): statistically significant prevention | carrageenan-induced edema, positive control preemptive ([2]; rat, 4 hrs post-carrageenan): statistically significant prevention

Further lines, results first:

melting point: 109 to 111 °C
SMILES: O=C(O)[C@@H]1CSC(Nc2ccc(F)cc2O)=N1 (as salt: HCl) [Compound 6, (R)-2-(4-Fluoro-2-hydroxyphenylamino)-thiazoline-4-carboxylic acid]

melting point: 118 to 120 °C
SMILES: COC(=O)c1ccc(NC2=N[C@H](C(=O)O)CS2)c(O)c1 (as salt: HCl) [Compound 12, (R)-2-(2-Hydroxy-4-methoxycarbonylphenylamino)-thiazoline-4-carboxylic acid]

melting point: 205 to 207 °C
SMILES: Cc1c(Cl)cc(NC2=N[C@H](C(=O)O)CS2)c(O)c1Cl (as salt: HCl) [Compound 8, (R)-2-(3,5-Dichloro-2-hydroxy-4-methylphenylamino)-thiazoline-4-carboxylic acid]
